Test results from US20100280358A1, “SINGLE BREATH-HOLD SYSTEM AND METHOD FOR DETECTION AND ASSESSMENT OF MULTI-ORGAN PHYSIOLOGIC, MORPHOLOGIC AND STRUCTURAL CHANGES” (University of Virginia Patent Foundation, priority 2009, published 2010).

Assays:
[1] = tested on: rabbit model of stereotactic lung radiosurgery; assay: SB-CSI with hp Xe-129 in a rabbit model of stereotactic lung radiosurgery with and without a radioprotector; type: in vivo, New Zealand rabbits; conditions: for mean difference between the lungs (SB-CSI maps, mean±SD): right lower lobe 3 x 11 Gy, 50 mg/Kg I.V. 20 minutes before each radiation dose, baseline 3.2%±3.5%
Source text: In order to study the efficacy of this technique for detecting changes in lung physiology and morphology, it was applied to a rabbit model of stereotactic lung radiosurgery with and without a radioprotector. The lower lobes of the right lung of nine New Zealand rabbits were irradiated with 3 doses of 11 Gy each (FIGS. 2A, 2B) using a TomoTherapy Hi-Art scanner. The healthy left lung was spared from radiation, so it could be used as a control and also would improve the animal's quality of life. Six of these nine animals received 50 mg/Kg of the radioprotector Amifostine, through an I.V., 20 minutes before each radiation dose. SB-CSI was performed using a 1.5-Tesla clinical MR scanner at baseline, and at 4 and 8 weeks post-radiation treatment. For correlation with the SB-CSI results, each animal was also scanned at the same time points (in the same MR scanner) using a 3D contrast-enhanced MRA sequence (ce-MRA), with 3 cc of a gadolinium chelate (FIGS. 2E, 2F). Within a week of the Xe-129 scan, a hyperpolarized Helium-3 (hp He-3) ventilation scan (FIGS. 2G, 2H) was obtained using the same inhalation and breath-hold technique as those for Xe-129, and a computed tomography (CT) scan was also obtained with a resolution of 0.5×0.5×1.5 mm^3 (FIGS. 2C, 2D).
SB-CSI maps based on the integrals of each individual peak were calculated separately for each animal and for each time point. At baseline the mean differences between the lungs were statistically identical for both groups, with 1.3%±1.0% (mean±SD) for the control group (radiosurgery only) and 3.2%±3.5% for the group that received radiosurgery and the radioprotector. At 4 weeks post radiosurgery, the mean differences between the lungs were 6.2%±2.3% and 4.6%±3.2% for the control and radioprotector groups, respectively. At 8 weeks post, the mean difference between the lungs increased to 16.7%±3.2% for the control group, while for the animals that received the radioprotector the value remained identical to baseline, at 3.4%±2.6%. […]

[2] = tested on: rabbit model of lung fibrosis; assay: hyperpolarized Xe-129 2D/3D-CSI in a rabbit model of lung fibrosis (endotracheal bleomycin); type: in vivo, New Zealand White rabbits; conditions: after endotracheal instillation, scans at 2, 4 and 7 weeks
Source text: Three New Zealand White rabbits underwent hyperpolarized Xe-129 2D or 3D-CSI one four different days: one before and 2, 4 and 7 weeks after the endotracheal instillation of bleomycin which induces lung fibrosis, or after the endotracheal instillation of porcine elastase which initially induces lung inflammation but later induces emphysema, and one control animal with no intervention. All scans were done in a 1.5 Tesla clinical system (Avanto, Siemens Medical Solutions) using a transmitter/receiver birdcage RF coil (IGC Medical Advances, Milwaukee, Wis.) tuned to the Xe-129 frequency. Isotopically enriched (˜87%) Xe-129 was polarized to ˜35% using a commercial prototype polarizer (Xemed LLC, NH). For each 2D or 3D acquisition, a single 40-cc volume was administered to the animal, and respiration was suspended for the acquisition (˜6-18s). […]
Quantification of the maps for the animal in the fibrosis model group show an increase in the tissue/gas and RBC/gas ratios following the instillation of bleomycin, but only the tissue/gas remained elevated, as expected in fibrosis (FIG. 5).
This Xe-129 dissolved-phase peak is not well resolved in normal rabbits and it was not seen in our control animal. […] Subsequently, each separate peak in the spectrum was quantified using a Principal Component Analysis (PCA) method (33)

Compound	early treatment toxicity (radiation-induced pulmonary injury) detected by SB-CSI ([1]; 4 and 8 weeks post treatment, versus radiation only)	mean difference between the lungs (SB-CSI maps, mean±SD) ([1]; 4 weeks post radiosurgery, control group 6.2%±2.3%)	mean difference between the lungs (SB-CSI maps, mean±SD) ([1]; 8 weeks post radiosurgery, control group 16.7%±3.2%)	RBC/gas ratio (Xe-129 CSI maps) ([2]; did not remain elevated (FIG. 5))	tissue/gas ratio (Xe-129 CSI maps) ([2]; remained elevated (FIG. 5))
NCCCNCCSP(=O)(O)O [radioprotector, Amifostine]	reduced early treatment toxicity	4.6%±3.2%	3.4%±2.6%		
bleomycin				increase	increase
